Measured values from ChEMBL document CHEMBL1201862, “PubChem BioAssay data set” (2004).
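These data come from cells grown in 96-well plates and exposed to compound for 48 hours at five concentrations. GI50 is the concentration that inhibits growth by half.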 Activity calls are given as the source filed them. Rule as the data show it: active = GI50 up to about 1.1 µM and inactive = higher.

Assays:
Assay in all cases: NCI tumour cell line growth inhibition, 48 h
[1] = test system: SK-OV-3
[2] = test system: KM12
[3] = test system: OVCAR-8
[4] = test system: COLO 205
[5] = test system: CCRF-CEM
[6] = test system: HCC 2998
[7] = test system: HCT-116
[8] = test system: NCI-H460
[9] = test system: A498
[10] = test system: NCI-H522
[11] = test system: Hs-578T
[12] = test system: PC-3
[13] = test system: SF-539
[14] = test system: SNB-75
[15] = test system: NCI/ADR-RES
[16] = test system: SN12C
[17] = test system: SW-620
[18] = test system: M14
[19] = test system: RXF 393
[20] = test system: ACHN
[21] = test system: CAKI-1
[22] = test system: U-251
[23] = test system: UO-31
[24] = test system: DU-145
[25] = test system: RPMI-8226
[26] = test system: OVCAR-3
[27] = test system: 786-0
[28] = test system: BT-549
[29] = test system: NCI-H226
[30] = test system: HOP-92
[31] = test system: UACC-257
[32] = test system: HT-29
[33] = test system: OVCAR-4
[34] = test system: SK-MEL-28
[35] = test system: SK-MEL-5
[36] = test system: MOLT-4
[37] = test system: HCT-15
[38] = test system: MDA-MB-435
[39] = test system: EKVX
[40] = test system: T47D
[41] = test system: MCF7
[42] = test system: A549
[43] = test system: K562
[44] = test system: NCI-H23
[45] = test system: SF-295
[46] = test system: HL-60
[47] = test system: HOP-62
[48] = test system: OVCAR-5
[49] = test system: SK-MEL-2
[50] = test system: SNB-19
[51] = test system: UACC-62
[52] = test system: SF-268
[53] = test system: MDA-MB-231
[54] = test system: SR
[55] = test system: IGROV-1
[56] = test system: TK-10
[57] = test system: Malme-3M
[58] = test system: MDA-N

`COc1ccccc1NC(=O)CC(=O)N1N=C(N2c3ccccc3Sc3ccccc32)CC1c1ccccc1` (stereo unspecified) was tested, and the GI50 [1] was > 100 µM (inactive), the GI50 [2] was > 100 µM (inactive) and the GI50 [3] was > 100 µM (inactive). The GI50 [4] was > 100 µM (inactive), the GI50 [5] was > 100 µM (inactive) and the GI50 [6] was > 100 µM (inactive). The GI50 [7] was > 100 µM (inactive), the GI50 [8] was > 100 µM (inactive) and the GI50 [9] was > 100 µM (inactive). For the same molecule, the GI50 [10] was > 100 µM (inactive), the GI50 [11] was > 100 µM (inactive) and the GI50 [12] was > 100 µM (inactive). For the same molecule, the GI50 [13] was > 100 µM (inactive), the GI50 [14] was > 100 µM (inactive) and the GI50 [15] was > 100 µM (inactive). For the same molecule, the GI50 [16] was > 100 µM (inactive), the GI50 [17] was > 100 µM (inactive) and the GI50 [18] was > 100 µM (inactive). For the same molecule, the GI50 [19] was > 100 µM (inactive), the GI50 [20] was > 100 µM (inactive) and the GI50 [21] was > 100 µM (inactive). For the same molecule, the GI50 [22] was > 100 µM (inactive), the GI50 [23] was > 100 µM (inactive) and the GI50 [24] was > 100 µM (inactive). For the same molecule, the GI50 [25] was > 100 µM (inactive), the GI50 [26] was > 100 µM (inactive) and the GI50 [27] was > 100 µM (inactive). The GI50 [28] was > 100 µM (inactive), the GI50 [29] was > 100 µM (inactive) and the GI50 [30] was > 100 µM (inactive). For the same molecule, the GI50 [31] was > 100 µM (inactive), the GI50 [32] was > 100 µM (inactive) and the GI50 [33] was > 100 µM (inactive). For the same molecule, the GI50 [34] was > 100 µM (inactive), the GI50 [35] was > 100 µM (inactive) and the GI50 [36] was > 100 µM (inactive). For the same molecule, the GI50 [37] was > 100 µM, the GI50 [38] was > 100 µM (inactive) and the GI50 [39] was > 100 µM (inactive). For the same molecule, the GI50 [40] was > 100 µM (inactive), the GI50 [41] was > 100 µM (inactive) and the GI50 [42] was > 100 µM (inactive). The GI50 [43] was > 100 µM (inactive), the GI50 [44] was > 100 µM (inactive) and the GI50 [45] was > 100 µM (inactive). For the same molecule, the GI50 [46] was > 100 µM (inactive), the GI50 [47] was > 100 µM (inactive) and the GI50 [48] was > 100 µM (inactive). For the same molecule, the GI50 [49] was > 100 µM (inactive), the GI50 [50] was > 100 µM (inactive) and the GI50 [51] was > 100 µM (inactive). For the same molecule, the GI50 [52] was > 100 µM (inactive), the GI50 [53] was > 100 µM (inactive) and the GI50 [54] was > 100 µM (inactive). The GI50 [55] was > 100 µM (inactive) and the GI50 [56] was > 100 µM (inactive).
For `COC1(OC)N=C(N)C2(C#N)C3(C(=O)N(C(C)C)N=C3C)C12C#N` (stereo unspecified), the GI50 [1] was > 100 µM (inactive), the GI50 [2] was > 100 µM (inactive) and the GI50 [3] was > 100 µM (inactive). The GI50 [4] was > 100 µM (inactive), the GI50 [5] was > 100 µM (inactive) and the GI50 [6] was > 100 µM (inactive). For the same molecule, the GI50 [7] was > 100 µM (inactive), the GI50 [8] was > 100 µM (inactive) and the GI50 [9] was > 100 µM (inactive). The GI50 [10] was > 100 µM (inactive), the GI50 [12] was > 100 µM (inactive) and the GI50 [13] was > 100 µM (inactive). For the same molecule, the GI50 [14] was > 100 µM (inactive), the GI50 [15] was > 100 µM (inactive) and the GI50 [16] was > 100 µM (inactive). For the same molecule, the GI50 [17] was > 100 µM (inactive), the GI50 [18] was > 100 µM (inactive) and the GI50 [19] was > 100 µM (inactive). The GI50 [20] was > 100 µM (inactive), the GI50 [21] was > 100 µM (inactive) and the GI50 [22] was > 100 µM (inactive). The GI50 [23] was > 100 µM (inactive), the GI50 [57] was > 100 µM (inactive) and the GI50 [24] was > 100 µM (inactive). The GI50 [25] was > 100 µM (inactive), the GI50 [26] was 49.7 µM (inactive) and the GI50 [27] was > 100 µM (inactive). The GI50 [28] was > 100 µM (inactive), the GI50 [29] was > 100 µM (inactive) and the GI50 [30] was > 100 µM (inactive). The GI50 [31] was > 100 µM (inactive), the GI50 [32] was > 100 µM (inactive) and the GI50 [33] was > 100 µM (inactive). The GI50 [34] was > 100 µM (inactive), the GI50 [36] was > 100 µM (inactive) and the GI50 [37] was > 100 µM. The GI50 [38] was > 100 µM (inactive), the GI50 [39] was > 100 µM (inactive) and the GI50 [40] was > 100 µM (inactive). For the same molecule, the GI50 [41] was > 100 µM (inactive), the GI50 [42] was > 100 µM (inactive) and the GI50 [43] was > 100 µM (inactive). The GI50 [44] was > 100 µM (inactive), the GI50 [45] was > 100 µM (inactive) and the GI50 [46] was > 100 µM (inactive). The GI50 [47] was > 100 µM (inactive), the GI50 [48] was > 100 µM (inactive) and the GI50 [49] was > 100 µM (inactive). For the same molecule, the GI50 [50] was > 100 µM (inactive), the GI50 [51] was > 100 µM (inactive) and the GI50 [52] was > 100 µM (inactive). For the same molecule, the GI50 [53] was > 100 µM (inactive), the GI50 [58] was > 100 µM (inactive) and the GI50 [54] was > 100 µM (inactive). For the same molecule, the GI50 [55] was > 100 µM (inactive).
